Test results from patent US20250188088A1, “COMPOUND AND USE THEREOF” (ONQUALITY PHARMACEUTICALS CHINA LTD., priority 2022, published 2025).

Experiments:
[1] = test system: rash caused by small molecule EGFR inhibitors; assay: Treatment of rash caused by small molecule EGFR inhibitors, topical ointment, rat model; assay type: in vivo, SD rats
Experimental: An Experiment to Verify the Treatment of Rash Caused by Small Molecule EGFR Inhibitors with Topical Administration of Compounds of the Present Application on a Rat Animal Model After the SD rats were fed and adapted for one week (about 200 g), the rats were divided into 10 rats per group. The hair on the back of rats was gently removed with an electric razor one day before the experiment, and then an intragastric administration test was carried out. EGFR inhibitors were dissolved in a sterile aqueous solution, and diluted with PBS buffer; the amount of each gavage was not more than 2 mL, and the dosage was shown in Table 3. […] The experiments were divided into the administration group with the compound of the present application and the control group. During the treatment experiment, EGFR inhibitors were intragastrically administered continuously every day. After the gavage, the administration group applied the compound ointment of the present application on the back (about 3 cm*3 cm) of rats, and the control group applied blank matrix ointment on the back (about 3 cm*3 cm); after application, the rats were fixed with a fixed cyclinder for about 4 hours, and then the rats were released, with the residual drug at the application site wiped off with clean water, and put back into the cage. The frequency of intragastric administration of EGFR inhibitors is shown in Table 3, but the compounds of the present application and blank ointment are applied only once a day. […] Table 3 lists the animal experiment combinations of various small molecule EGFR inhibitors and the compound ointment of the present application, as well as the corresponding experiment results (wherein, the value in the control rate column=the number of rats whose rash is milder in the administration group than that in the control group/the total number of rats in the administration group×100%).

[2] = test system: skin contact delayed-type hypersensitivity; assay: Skin contact delayed-type hypersensitivity (DNFB) response test, ear swelling, topical ointment; assay type: in vivo; details: topical to ears, DNFB DTH, Balb/c mice, compared to blank ointment
How it was run: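 Balb/c mice sensitized with DNFB on the back on Days 0–1, then challenged on Day 5 with 0.2% DNFB on both ears. Ear thickness measured by micrometer 24–72 h after challenge. Compound ointment applied topically over Days −1–7 or Days 4–7; effect is the reduction in ear swelling versus blank ointment, with ≥20% deemed effective.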

[3] = Log D measurement (n-octanol/PBS shake, LC-MS/MS); assay type: physicochemical; details: pH 7.4, read-out: LogD7.4 (Oct/buff)
Experimental: Two replicates of test compounds (DMSO stock solution 10 mM, 2 μL/well) and QCs (DMSO 10 mM, 2 μL/well) were transferred from the storage tube to a 96-well cluster tube. Add buffer-saturated n-octanol ([…]) and n-octanol-saturated PBS (149 μL/well) to each well; vortex mix the cluster tube for 1 minute, mix by shaking on a plate shaker at 880 rpm for one hour, and then centrifuge at 4000 rpm for 10 minutes. Remove the cover pad, accurately measure a certain amount of n-octanol layer samples (4 μL/well) into a 96-well plate containing n-octanol internal standard diluent (796 μL/well); accurately measure a certain amount of buffer salt layer samples (30 μL/well) into a 96-well plate containing buffer internal standard diluent (570 μL/well); the dilution factor of the sample can be adjusted according to different properties of the sample. Samples were analyzed using a triple quadrupole mass spectrometer. The processed sample solution was analyzed by the fast isocratic elution and small column retention method, the concentration correction was carried out by dilution factor and internal standard, and the ratio of the corrected peak area was used to calculate the final result (Log D/Log P value).

logD [3]: 0.63
SMILES: C[C@@H]1CCN(C(=O)CC#N)C[C@@H]1N(C)c1ncnc2c1ccn2C(=O)N(C)CCOC(=O)C1CCCO1 (some centres unmarked) [Compound A7]
Control Rate ([1]; Afatinib 40 mg/kg once a day, 6 dosing modelling days, ointment 0.1 wt% once a day): 20% | Control Rate ([1]; Afatinib 40 mg/kg once a day, 6 dosing modelling days, ointment 3.0 wt% once a day): 60% | Control Rate ([1]; BPI-7711 60 mg/kg once a day, 6 dosing modelling days, ointment 3.0 wt% once a day): 70% | Control Rate ([1]; EAI045 80 mg/kg once a day, 8 dosing modelling days, ointment 1.0 wt% once a day): 50% | Control Rate ([1]; EAI045 80 mg/kg once a day, 8 dosing modelling days, ointment 5.0 wt% once a day): 80% | Control Rate ([1]; Larotinib 20 mg/kg once a day, 6 dosing modelling days, ointment 3.0 wt% once a day): 6% | Control Rate ([1]; Osimertinib 60 mg/kg twice a day, 7 dosing modelling days, ointment 3.0 wt% once a day): 10% | Control Rate ([1]; Osimertinib 60 mg/kg twice a day, 7 dosing modelling days, ointment 10.0 wt% once a day): 70% | Reduction Rate of Ear Swelling ([2]; ointment 0.05 wt%): 18% | Reduction Rate of Ear Swelling ([2]; ointment 0.1 wt%): 22% | Reduction Rate of Ear Swelling ([2]; ointment 1.0 wt%): 27% | Reduction Rate of Ear Swelling ([2]; ointment 5.0 wt%): 35% | Reduction Rate of Ear Swelling ([2]; ointment 10.0 wt%): 42%
